Data published in patent publication US20240018125A1, “CYCLIC ISOTHIOUREA DERIVATIVES AS CXCR4 MODULATORS” (ERMIUM THERAPEUTICS, priority 2020, published 2024).
Counter-ions that a name gives are not always drawn.

test system: peripheral blood mononuclear cells (PBMCs) from healthy donors; test: IFN production by R848-activated PBMCs, quantified with twINNE luciferase reporter cell line; assay type: cell-based, human; conditions: Homo sapiens, PBMC; read-out: IC50 of anti-inflammatory activity (IFN production by activated PBMCs)
Procedure: The blood from healthy donors was obtained from “Etablissement Français du Sang” (convention #19/EFS/029), Paris, France.
In vitro experiments were performed using human peripheral blood mononuclear cells (PBMCs) isolated by density centrifugation from peripheral blood leukocyte separation medium, lymphoprep (Stemcell Technologies).
PBMCs were cultured in RPMI 1640 (Sigma-Aldrich, MO, USA) containing 10% heat-inactivated fetal bovine serum (Sigma-Aldrich, MO, USA) at 37° C./5% CO2.
The PBMCs used herein were prepared as described in part A “immune cells preparation”, above. PBMCs were seeded at 4.10^6/mL. Cells were pre-treated with different concentration of examples according to the invention. Cells were then stimulated with the TLR7/8 agonist resiquimod—R848 (Sigma-Aldrich, MO, USA) at 5 μg/mL.
To quantify the secretion of functional IFN, a biological assay based on a stable cell line where luciferase reporter gene is controlled by five Interferon-Stimulated Response Elements (twINNE cell line) was used. First, supernatants of R848-stimulated PBMCs (see part B above) were harvested after 24 h of stimulation and frozen at −20° C. for storage. Then, supernatants were dispensed in culture wells of a 96-well plate containing 35.103 twINNE cells per well in Dulbecco's Modified Eagle's Medium supplemented with 10% Foetal Bovine Serum, 100 U/mL Penicillin and 100 μg/mL Streptomycin (1% Pen-Strep) and 1 mM glutamine (Sigma-Aldrich, MO, USA) at 37° C./5% CO2. After 24 h of culture, luciferase activity was determined by adding 60 μL of Bright-Glo reagents (Promega, Wisconsin, USA) to culture wells and measuring bioluminescence with EnSpire Multimode Plate Reader (PerkinElmer, Massachusetts, USA). When stated, for IC50 calculation, dose-response curves fitted using the nonlin fit (variable slope) analysis in GraphPad Prism software (GraphPad Software, Califronia, USA).
IFN production was quantified (as specified in Materials and Methods, part C “quantification of interferon secretion”) using twINNE reporter cell line.

SMILES	IC50 [µM]
Clc1ccc(C2CN3C(CSC4=NCc5ccccc5N4)=CSC3=N2)cc1 (stereo not shown) [Example 14, 6-(4-chlorophenyl)-3-(((3,4-dihydroquinazolin-2-yl)thio)methyl)-5,6-dihydroimidazo[2,1-b]thiazole dihydrochloride]	≤ 10
c1ccc2c(c1)CN=C(SCc1ccncc1)NC2 [Example 189, 3-((pyridin-4-ylmethyl)thio)-2,5-dihydro-1H-benzo[e][1,3]diazepine dihydrochloride]	> 32
CC1(C)N=C(SCCCCN2CCCC2)Nc2ccccc21 [Example 160, 4,4-dimethyl-2-((4-(pyrrolidin-1-yl)butyl)thio)-1,4-dihydroquinazoline dihydrochloride]	> 32
COC1CCN(CCSC2=NCc3ccccc3N2)C1 (stereo not shown) [Example 127, 2-((2-(3-methoxypyrrolidin-1-yl)ethyl)thio)-1,4-dihydroquinazoline dihydrochloride]	≤ 10
Clc1ccc2c(c1)CN1C(CSC3=N[C@@H]4CCCC[C@H]4N3)=CSC1=N2 [Example 40, 7-chloro-3-((((3aR,7aR)-3a,4,5,6,7,7a-hexahydro-1H-benzo[d]imidazol-2-yl)thio)methyl)-5H-thiazolo[2,3-b]quinazoline dihydrochloride]	≤ 10
c1ccc2c(c1)CCN=C(SCCN1CCc3ccccc31)N2 [Example 192, 2-((2-(indolin-1-yl)ethyl)thio)-4,5-dihydro-1H-benzo[d][1,3]diazepine hydrochloride]	10 to 32
CN1CCCC1CCCSC1=NCc2cc(Cl)ccc2N1 (stereo not shown) [Example 174, 6-chloro-2-((3-(1-methylpyrrolidin-2-yl)propyl)thio)-1,4-dihydroquinazoline dihydrochloride]	≤ 10
Fc1ccc2c(c1)CN1C(CSC3=NCc4ccccc4N3)=CSC1=N2 [Example 84, 3-(((1,4-dihydroquinazolin-2-yl)thio)methyl)-7-fluoro-5H-thiazolo[2,3-b]quinazoline dihydrochloride]	≤ 10
C1=C(CSC2=NCCc3ccccc3N2)N2Cc3ccccc3CN=C2S1 [Example 25, 3-(((4,5-dihydro-1H-benzo[d][1,3]diazepin-2-yl)thio)methyl)-5,10-dihydrobenzo[e]thiazolo[3,2-a][1,3]diazepine dihydrochloride]	≤ 10
CC1(c2ccccc2)CN=C(SCC2=CSC3=NCc4ccccc4CN23)N1 (stereo not shown) [Example 30, 3-(((5-methyl-5-phenyl-4,5-dihydro-1H-imidazol-2-yl)thio)methyl)-5,10-dihydrobenzo[e]thiazolo[3,2-a][1,3]diazepine dihydrochloride]	≤ 10
FC1(F)CCN(CCSC2=NCc3ccccc3N2)C1 [Example 125, 2-((2-(3,3-difluoropyrrolidin-1-yl)ethyl)thio)-1,4-dihydroquinazoline dihydrochloride]	10 to 32
Fc1ccc(CC2CN3C(CSC4=NCc5ccccc5N4)=CSC3=N2)cc1 (stereo not shown) [Example 196, 3-(((1,4-dihydroquinazolin-2-yl)thio)methyl)-6-(4-fluorobenzyl)-5,6-dihydroimidazo[2,1-b]thiazole dihydrochloride]	≤ 10
Fc1ccc2c(c1)N=C1SC=C(CSC3=NCc4ccccc4N3)N1C2 [Example 82, 3-(((1,4-dihydroquinazolin-2-yl)thio)methyl)-8-fluoro-5H-thiazolo[2,3-b]quinazoline dihydrochloride]	≤ 10
C(CCN1CCCC1)CSC1=NCC2(CC2)N1 [Example 185, 5-((4-(pyrrolidin-1-yl)butyl)thio)-4,6-diazaspiro[2.4]hept-5-ene dihydrochloride]	> 32
CC1(C)N=C(SCC2=CSC3=Nc4cccc(F)c4CN23)Nc2ccccc21 [Example 73, 3-(((4,4-dimethyl-1,4-dihydroquinazolin-2-yl)thio)methyl)-6-fluoro-5H-thiazolo[2,3-b]quinazoline dihydrochloride]	> 32
C1=C(CSC2=N[C@@H](c3ccccc3)[C@H](c3ccccc3)N2)N2Cc3ccccc3CN=C2S1 [Example 24, 3-((((4S,5S)-4,5-diphenyl-4,5-dihydro-1H-imidazol-2-yl)thio)methyl)-5,10-dihydrobenzo[e]thiazolo[3,2-a][1,3]diazepine dihydrochloride]	≤ 10
Clc1ccc2c(c1)N=C1SC=C(CSC3=NCc4ccccc4N3)N1C2 [Example 42, 8-chloro-3-(((1,4-dihydroquinazolin-2-yl)thio)methyl)-5H-thiazolo[2,3-b]quinazoline dihydrochloride]	≤ 10

SMILES	IC50 [µM]
CN1CCCC1CCSC1=NCC(Cc2ccccc2)N1 (stereo not shown) [Example 57, 5-benzyl-2-((2-(1-methylpyrrolidin-2-yl)ethyl)thio)-4,5-dihydro-1H-imidazole dihydrochloride]	> 32
C1=C(CSC2=Nc3ccccc3C(c3ccccc3)N2)N2Cc3ccccc3CN=C2S1 (stereo not shown) [Example 27, 3-(((4-phenyl-3,4-dihydroquinazolin-2-yl)thio)methyl)-5,10-dihydrobenzo[e]thiazolo[3,2-a][1,3]diazepine dihydrochloride]	≤ 10
c1ccc2c(c1)CCN=C(SCc1ccncc1)N2 [Example 188, 2-((pyridin-4-ylmethyl)thio)-4,5-dihydro-1H-benzo[d][1,3]diazepine dihydrochloride]	10 to 32
Clc1ccc2c(c1)CN=C(SCC1=CSC3=NCCN13)N2 [Example 10, 3-(((6-chloro-1,4-dihydroquinazolin-2-yl)thio)methyl)-5,6-dihydroimidazo[2,1-b]thiazole dihydrochloride]	≤ 10
CC(CSC1=NCc2ccccc2N1)N1CCCC1 (stereo not shown) [Example 129, 2-((2-(pyrrolidin-1-yl)propyl)thio)-1,4-dihydroquinazoline dihydrochloride]	≤ 10
CC1(C)CN=C(SCC2=CSC3=Nc4ccccc4CN23)N1 [Example 5, 3-(((5,5-dimethyl-4,5-dihydro-1H-imidazol-2-yl)thio)methyl)-5H-thiazolo[2,3-b]quinazoline dihydrochloride]	10 to 32
Clc1ccc2c(c1)CN1C(=N2)SC(Br)=C1CSC1=NCc2ccccc2N1 [Example 79, 2-bromo-7-chloro-3-(((1,4-dihydroquinazolin-2-yl)thio)methyl)-5H-thiazolo[2,3-b]quinazoline dihydrochloride]	≤ 10
Clc1ccc2c(c1)NC(SCCCCN1CCCC1)=NC2 [Example 150, 7-chloro-2-((4-(pyrrolidin-1-yl)butyl)thio)-1,4-dihydroquinazoline dihydrochloride]	≤ 10
C1=C(CSC2=NCc3ccccc3N2)N2C(=N[C@H]3CCCC[C@@H]32)S1 (relative stereo) [Example 13, trans-3-(((3,4-dihydroquinazolin-2-yl)thio)methyl)-4a,5,6,7,8,8a-hexahydrobenzo[4,5]imidazo[2,1-b]thiazole dihydrochloride]	≤ 10
c1ccc2c(c1)CCN=C(SCCN1CCCc3ccccc31)N2 [Example 191, 2-((2-(3,4-dihydroquinolin-1(2H)-yl)ethyl)thio)-4,5-dihydro-1H-benzo[d][1,3]diazepine hydrochloride]	10 to 32
CC1(C)CN2C(CSC3=NCc4ccccc4CN3)=CSC2=N1 [Example 7, 3-(((2,5-dihydro-1H-benzo[e][1,3]diazepin-3-yl)thio)methyl)-6,6-dimethyl-5,6-dihydroimidazo[2,1-b]thiazole dihydrochloride]	> 32
Fc1ccc2c(c1)NC(SCCCCN1CCCC1)=NC2 [Example 151, 7-fluoro-2-((4-(pyrrolidin-1-yl)butyl)thio)-1,4-dihydroquinazoline dihydrochloride]	≤ 10
c1ccc2c(c1)CCN=C(SCCCN1CCCC1)N2 [Example 190, 2-((3-(pyrrolidin-1-yl)propyl)thio)-4,5-dihydro-3H-benzo[d][1,3]diazepine dihydrochloride]	10 to 32
CC1(c2ccccc2)CN2C(CSC3=NCc4ccccc4N3)=CSC2=N1 (stereo not shown) [Example 38, 3-(((3,4-dihydroquinazolin-2-yl)thio)methyl)-6-methyl-6-phenyl-5,6-dihydroimidazo[2,1-b]thiazole dihydrochloride]	≤ 10
Fc1ccc2c(c1)NC(SCC1=CSC3=NC(Cc4ccccc4)CN13)=NC2 (stereo not shown) [Example 89, 6-benzyl-3-(((7-fluoro-1,4-dihydroquinazolin-2-yl)thio)methyl)-5,6-dihydroimidazo[2,1-b]thiazole dihydrochloride]	≤ 10
CC1(C)CN=C(SCC2=CSC3=Nc4ccc(Cl)cc4CN23)N1 [Example 2, 7-chloro-3-(((5,5-dimethyl-4,5-dihydro-1H-imidazol-2-yl)thio)methyl)-5H-thiazolo[2,3-b]quinazoline dihydrochloride]	10 to 32
c1ccc(CC2CN=C(SCCN3CCCCC3)N2)cc1 (stereo not shown) [Example 50, 1-(2-((5-benzyl-4,5-dihydro-1H-imidazol-2-yl)thio)ethyl)piperidine dihydrochloride]	> 32
